In publication PMC11062922 (Nature Chemical Biology, 2023):
Read-outs that look alike come from different tables or passages of the source.

What was measured:
[1] = biological target: T1, PIM3 (Homo sapiens, UniProt Q86V86); experiment: Kinobeads competition binding: PIM3; conditions: target PIM3
T1 construct: a mixture of lysates from five cancer cell lines; endogenous in cells
Description: Supplement 41589_2023_1459_MOESM4_ESM.xlsx, sheet "CATDS matrix" | column: PIM3

[2] = system: CAMK4; experiment: Kinobeads competition binding: CAMK4; design: species or system human; conditions: target CAMK4;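 also: selectivity score: engagement of this protein divided by summed engagement of all targets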
[3] = biological target: T2, PKN1 (Homo sapiens, UniProt Q16512); experiment: Kinobeads competition binding: PKN1; conditions: target PKN1;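 also: share of total target engagement due to this protein at one drug concentration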
T2 construct: a mixture of lysates from five cancer cell lines; endogenous in cells
Description: Supplement 41589_2023_1459_MOESM4_ESM.xlsx, sheet "CATDS matrix" | column: PKN1

[4] = biological target: T3, ABL2 (Homo sapiens, UniProt P42684); experiment: Kinobeads competition binding: ABL2; conditions: target ABL2
T3 construct: endogenous in cells

[5] = system: NEK2; experiment: Kinobeads competition binding: NEK2; design: species or system human; conditions: target NEK2
[6] = system: MELK; experiment: Kinobeads competition binding: MELK; design: species or system human; conditions: target MELK;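 also: share of total target engagement due to this protein at one drug concentration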
[7] = biological target: ABL1 (Homo sapiens, UniProt P00519); experiment: Kinobeads competition binding: ABL1; conditions: target ABL1;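 also: selectivity score: engagement of this protein divided by summed engagement of all targets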
Description: Supplement 41589_2023_1459_MOESM4_ESM.xlsx, sheet "CATDS matrix" | column: ABL1

[8] = biological target: T4, EPHA4 (Homo sapiens, UniProt P54764); experiment: Kinobeads competition binding: EPHA4; conditions: target EPHA4
T4 construct: endogenous in cells
Description: Supplement 41589_2023_1459_MOESM4_ESM.xlsx, sheet "CATDS matrix" | column: EPHA4

[9] = biological target: PKN3 (Homo sapiens, UniProt Q6P5Z2); experiment: Kinobeads two-dose competition binding: PKN3; design: endogenous in cells; conditions: for CATDSPKN3: selectivity score from Kinobeads two-dose data
Description: Briefly, Kinobeads comprise seven broad-spectrum small molecule kinase inhibitors immobilized on Sepharose beads. […]. Compounds of interest are set to compete for target protein binding with Kinobeads in the lysate and the amount of a given protein bound to Kinobeads in the presence of a compound can be quantified relative to a dimethylsulfoxide (DMSO) vehicle control by label-free mass spectrometry. This assay measures the physical interaction of a compound with thousands of endogenous proteins in parallel and, when systematically increasing the concentration of competitor, enables the calculation of an apparent interaction constant ( Kdapp ) for each compound and protein.
Kinobeads pulldown experiments were performed as described previously[13],[14],[17] with minor modification. […] The protein concentration was adjusted to 5 mg ml^−1. Kinase inhibitors were spiked into 0.5 ml of cell lysate at final concentrations of 100 and 1,000 nM (or DMSO, 0.3, 1, 3, 10, 30, 100, 300 and 1,000 nM for full dose experiments). […] Lysates were incubated for 45 min at 4 °C. Subsequently, lysates were incubated with Kinobeads ε (17.5 µl of settled beads) for 30 min at 4 °C. To assess the degree of protein depletion from the lysates by Kinobeads, the flow through of the DMSO control was recovered for a pulldown of pulldown experiment where the lysate was incubated a second time with fresh Kinobeads. Beads were washed in three steps with buffer containing 0.4%, 0.2% and no IGEPAL. Bound proteins were reduced with 50 mM DTT in 8 M Urea, 40 mM Tris-HCl pH 7.4 for 30 min at room temperature. After alkylation with 55 mM chloroacetamide, the urea concentration was reduced to 1–2 M and proteins were digested with trypsin. Acidified peptides were desalted and concentrated using SepPak tC18 µEluation plates (Waters). Samples were frozen, dried by vacuum centrifugation and stored at −20 °C.
Each kinase inhibitor was processed together with all DMSO controls of the same plate. Additionally, each search was supplemented with five high quality DMSO controls for consistent peptide identification and protein grouping. The resultant file (proteinGroups.txt) was used for subsequent filtering, normalization, data visualization and target annotation that was automatically performed by a data processing pipeline built in house that used R (including the ‘drc’ and ‘heatmap’ packages). First, reverse hits, potential contaminants and not quantified proteins in the DMSO control samples were discarded. Protein raw and label-free quantification intensities were normalized to the median DMSO control intensity to obtain relative residual binding intensities for each protein group at every inhibitor concentration and standard deviations of the DMSO control intensity were calculated. IC50 values were estimated based on the following equation IC50=I×100−inhibition/inhibition where [I] is the inhibitor concentration that was used for IC50 calculation and ‘inhibition’ the relative residual binding intensity. […]. Estimated Kdapp values were then calculated by multiplying the estimated IC50 values with a protein-dependent correction factor that was limited to a maximum value of one. The correction factor accounts for the depletion of a target protein from the lysate by Kinobeads. The depletion can be measured by the ratio of the amount of protein captured in two consecutive pulldowns of the same DMSO control lysate. In this study, correction factors were determined in separate experiments using the same lysate mixture and the same bead batch. Correction factors were set to the median of all correction factors. Targets of kinase inhibitors were annotated using the previously published random forest classifier. A training data set was annotated manually. […]

[10] = Kinobeads two-dose, read-out: Kdapp PKN3

Sequence of PKN3 (Q6P5Z2 whole entry): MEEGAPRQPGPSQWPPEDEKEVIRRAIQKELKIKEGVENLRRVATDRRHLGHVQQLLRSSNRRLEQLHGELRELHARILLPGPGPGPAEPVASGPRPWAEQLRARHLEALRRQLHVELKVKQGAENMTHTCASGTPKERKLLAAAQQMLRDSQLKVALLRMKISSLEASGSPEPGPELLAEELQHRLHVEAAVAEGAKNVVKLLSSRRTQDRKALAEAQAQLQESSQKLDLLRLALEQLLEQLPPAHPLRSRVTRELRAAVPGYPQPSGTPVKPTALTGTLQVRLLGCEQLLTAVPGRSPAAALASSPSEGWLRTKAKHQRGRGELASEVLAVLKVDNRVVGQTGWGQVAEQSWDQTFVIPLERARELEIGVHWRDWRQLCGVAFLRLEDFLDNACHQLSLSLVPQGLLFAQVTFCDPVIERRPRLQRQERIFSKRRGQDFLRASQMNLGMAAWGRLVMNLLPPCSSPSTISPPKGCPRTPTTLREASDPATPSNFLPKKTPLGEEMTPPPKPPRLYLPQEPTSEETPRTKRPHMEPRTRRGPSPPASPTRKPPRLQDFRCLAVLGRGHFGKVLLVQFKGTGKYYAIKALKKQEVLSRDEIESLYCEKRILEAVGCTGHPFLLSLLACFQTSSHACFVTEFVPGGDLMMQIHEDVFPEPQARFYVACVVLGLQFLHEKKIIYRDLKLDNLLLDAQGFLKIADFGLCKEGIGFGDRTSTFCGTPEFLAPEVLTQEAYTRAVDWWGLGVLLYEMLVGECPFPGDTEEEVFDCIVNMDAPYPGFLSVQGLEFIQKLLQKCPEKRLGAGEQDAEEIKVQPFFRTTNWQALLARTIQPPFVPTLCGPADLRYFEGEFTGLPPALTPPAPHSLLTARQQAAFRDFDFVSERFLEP
Sequence of ABL1 (P00519 28-1130 limits assumed): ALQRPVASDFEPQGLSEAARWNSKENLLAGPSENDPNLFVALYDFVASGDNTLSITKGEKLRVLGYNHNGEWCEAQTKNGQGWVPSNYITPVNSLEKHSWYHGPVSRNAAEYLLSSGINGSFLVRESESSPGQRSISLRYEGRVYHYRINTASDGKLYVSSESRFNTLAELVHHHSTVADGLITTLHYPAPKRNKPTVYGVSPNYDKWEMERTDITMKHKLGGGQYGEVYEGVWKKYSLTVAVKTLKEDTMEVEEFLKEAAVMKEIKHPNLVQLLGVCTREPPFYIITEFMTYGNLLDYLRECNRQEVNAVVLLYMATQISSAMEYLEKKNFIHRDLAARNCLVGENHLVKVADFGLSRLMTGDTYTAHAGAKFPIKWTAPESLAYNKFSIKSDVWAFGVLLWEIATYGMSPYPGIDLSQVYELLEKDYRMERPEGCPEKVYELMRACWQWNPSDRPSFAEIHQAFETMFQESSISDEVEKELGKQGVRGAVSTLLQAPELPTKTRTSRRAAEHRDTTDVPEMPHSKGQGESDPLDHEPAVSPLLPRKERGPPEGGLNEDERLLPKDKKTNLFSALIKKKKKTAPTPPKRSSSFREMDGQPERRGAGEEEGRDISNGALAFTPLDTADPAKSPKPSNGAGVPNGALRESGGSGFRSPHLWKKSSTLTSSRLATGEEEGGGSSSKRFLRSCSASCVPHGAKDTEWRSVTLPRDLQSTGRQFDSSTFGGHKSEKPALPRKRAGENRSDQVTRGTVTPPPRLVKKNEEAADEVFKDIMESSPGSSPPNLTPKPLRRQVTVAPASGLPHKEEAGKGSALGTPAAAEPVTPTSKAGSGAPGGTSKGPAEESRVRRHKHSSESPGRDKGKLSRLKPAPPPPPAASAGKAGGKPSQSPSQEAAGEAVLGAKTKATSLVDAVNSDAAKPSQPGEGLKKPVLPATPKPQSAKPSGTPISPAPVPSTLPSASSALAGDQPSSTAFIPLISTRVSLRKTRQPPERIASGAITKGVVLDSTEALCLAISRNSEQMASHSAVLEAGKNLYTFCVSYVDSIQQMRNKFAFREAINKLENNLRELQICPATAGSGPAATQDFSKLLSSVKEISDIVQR
T2 sequence (Q16512 whole entry): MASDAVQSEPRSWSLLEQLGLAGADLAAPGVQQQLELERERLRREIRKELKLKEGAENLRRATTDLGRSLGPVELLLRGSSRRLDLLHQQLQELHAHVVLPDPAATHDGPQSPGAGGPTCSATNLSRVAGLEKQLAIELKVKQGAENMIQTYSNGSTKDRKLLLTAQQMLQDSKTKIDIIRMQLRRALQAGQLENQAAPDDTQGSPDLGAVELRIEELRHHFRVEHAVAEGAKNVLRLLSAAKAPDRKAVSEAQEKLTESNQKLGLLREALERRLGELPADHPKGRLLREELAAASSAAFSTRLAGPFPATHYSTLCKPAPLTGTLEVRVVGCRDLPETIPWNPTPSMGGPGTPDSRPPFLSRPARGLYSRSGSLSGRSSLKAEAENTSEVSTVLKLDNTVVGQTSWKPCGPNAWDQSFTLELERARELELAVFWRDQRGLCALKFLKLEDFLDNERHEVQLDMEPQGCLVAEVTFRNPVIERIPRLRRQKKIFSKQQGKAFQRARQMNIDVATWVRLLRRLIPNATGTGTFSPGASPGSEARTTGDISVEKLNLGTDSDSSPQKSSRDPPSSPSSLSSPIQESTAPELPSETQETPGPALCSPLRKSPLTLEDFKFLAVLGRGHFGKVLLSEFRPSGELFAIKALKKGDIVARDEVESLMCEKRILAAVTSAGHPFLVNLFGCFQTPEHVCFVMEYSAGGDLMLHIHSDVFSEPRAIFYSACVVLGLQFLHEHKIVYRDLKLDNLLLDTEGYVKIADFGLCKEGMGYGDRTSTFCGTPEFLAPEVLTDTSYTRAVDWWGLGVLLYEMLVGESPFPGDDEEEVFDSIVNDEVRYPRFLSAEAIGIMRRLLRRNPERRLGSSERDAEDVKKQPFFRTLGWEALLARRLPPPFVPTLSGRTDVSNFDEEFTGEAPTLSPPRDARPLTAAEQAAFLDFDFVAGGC
T4 sequence (P54764 20-986): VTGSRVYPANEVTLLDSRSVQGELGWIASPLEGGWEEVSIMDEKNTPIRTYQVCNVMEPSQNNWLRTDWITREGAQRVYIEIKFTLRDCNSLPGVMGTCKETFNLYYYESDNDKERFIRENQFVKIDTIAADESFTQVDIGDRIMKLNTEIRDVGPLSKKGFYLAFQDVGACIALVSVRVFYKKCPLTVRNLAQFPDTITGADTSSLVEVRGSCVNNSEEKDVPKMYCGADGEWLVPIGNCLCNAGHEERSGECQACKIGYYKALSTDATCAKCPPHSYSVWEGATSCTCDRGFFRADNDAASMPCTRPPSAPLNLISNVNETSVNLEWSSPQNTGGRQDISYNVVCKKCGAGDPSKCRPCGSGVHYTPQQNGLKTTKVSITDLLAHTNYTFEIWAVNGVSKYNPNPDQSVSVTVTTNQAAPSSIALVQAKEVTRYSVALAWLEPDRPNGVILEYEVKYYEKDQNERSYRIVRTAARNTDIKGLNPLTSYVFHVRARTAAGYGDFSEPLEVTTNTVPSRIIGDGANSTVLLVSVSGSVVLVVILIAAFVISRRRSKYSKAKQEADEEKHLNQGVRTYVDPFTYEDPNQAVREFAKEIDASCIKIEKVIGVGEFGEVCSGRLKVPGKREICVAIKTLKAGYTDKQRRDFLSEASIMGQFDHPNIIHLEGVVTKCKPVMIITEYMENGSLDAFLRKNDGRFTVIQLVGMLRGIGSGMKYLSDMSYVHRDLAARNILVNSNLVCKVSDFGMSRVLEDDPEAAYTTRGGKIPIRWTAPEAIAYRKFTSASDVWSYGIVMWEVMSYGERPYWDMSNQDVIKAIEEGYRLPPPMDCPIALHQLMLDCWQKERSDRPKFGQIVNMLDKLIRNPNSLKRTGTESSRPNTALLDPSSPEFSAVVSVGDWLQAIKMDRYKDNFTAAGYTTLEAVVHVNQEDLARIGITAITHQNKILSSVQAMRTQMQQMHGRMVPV

SMILES | CATDS [1] | CATDS [2] | CATDS [3] | CATDS [4] | CATDS [5] | CATDS [6] | CATDS [7] | CATDS [8] | potency estimated from few doses [9, 10] [nM] | CATDSPKN3 [9] | potency estimated from few doses ([9]; read-out: Lestaurtinib Drugmatrix value, Gene Name PKN3, one column per experiment number and replicate (R1-R3)) [nM] | potency estimated from few doses ([9]; read-out: Kdapp PKN3) [nM]
Nc1ncnc2[nH]c(-c3ccccc3)nc12 [AH5015_KCGS] | 0 | 0 | 0 | 0 | 0 | 0 | 0 | 0 |  |  |  | 
CCN1CCN(Cc2ccc(Nc3ncc(F)c(-c4cc(F)c5nc(C)n(C(C)C)c5c4)n3)nc2)CC1 [Abemaciclib] | 0 | 0 | 0 | 0 | 0 | 0 | 0 | 0 |  |  |  | 
CN(C)C/C=C/C(=O)Nc1cc2c(Nc3ccc(F)c(Cl)c3)ncnc2cc1O[C@H]1CCOC1 [Afatinib] | 0 |  | 0 |  |  |  | 0 | 0 |  |  |  | 
CCc1cc2c(cc1N1CCC(N3CCOCC3)CC1)C(C)(C)c1[nH]c3cc(C#N)ccc3c1C2=O [Alectinib] | 0 | 0 | 0 | 0 | 0 | 0 | 0 | 0 |  |  |  | 
N#CC1(c2ccc(NC(=O)c3cccnc3NCc3ccncc3)cc2)CCCC1 [Apatinib] | 0 | 0 | 0 | 0 | 0 | 0 | 0 | 0 |  |  |  | 
CCn1c(-c2nonc2N)nc2c(C#CC(C)(C)O)nc(OCCN)cc21 [GSK902056A] |  |  |  |  |  |  |  |  | 1 | 0.93 |  | 
CCn1c(-c2nonc2N)nc2c(C#CC(C)(C)O)nc(OCCNC)cc21 [GSK949675A] |  |  |  |  |  |  |  |  | 2.5 | 0.86 |  | 
C[C@]12O[C@H](C[C@]1(O)CO)n1c3ccccc3c3c4c(c5c6ccccc6n2c5c31)CNC4=O [Lestaurtinib] |  |  |  |  |  |  |  |  |  |  | 755 | 
NCc1ccc(-c2nc(-c3ccncc3)c(-c3ccc(Cl)c(O)c3)[nH]2)cc1 [SB-476429-A] |  |  |  |  |  |  |  |  |  | 0.21 |  | 36
